ChEMBL document CHEMBL1201862, “PubChem BioAssay data set” (2004)
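96-well plates; 48 h exposure; 5 concentrations. Endpoints by linear interpolation between flanking doses. Not reached: highest tested concentration assigned. Here, GI50 denotes the concentration required for 50% inhibition of growth.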 Activity calls are given as the source filed them. Rule as the data show it: active = GI50 up to about 1.1 µM and inactive = higher.

Columns and labels:
Test in all cases: NCI anticancer screen, dose series, 48 h
NCI-H522 = system: NCI-H522
ACHN = system: ACHN
IGROV-1 = system: IGROV-1
MDA-N = system: MDA-N
SK-MEL-28 = system: SK-MEL-28
SW-620 = system: SW-620
HT-29 = system: HT-29
SK-MEL-5 = system: SK-MEL-5
DMS-273 = system: DMS-273
EKVX = system: EKVX
RPMI-8226 = system: RPMI-8226
HOP-62 = system: HOP-62
HL-60 = system: HL-60
HOP-18 = system: HOP-18
UO-31 = system: UO-31
MOLT-4 = system: MOLT-4
MDA-MB-231 = system: MDA-MB-231
Hs-578T = system: Hs-578T
SK-OV-3 = system: SK-OV-3
NCI-H460 = system: NCI-H460
BT-549 = system: BT-549
UACC-62 = system: UACC-62
CAKI-1 = system: CAKI-1
A498 = system: A498
DMS-114 = system: DMS-114
M14 = system: M14
OVCAR-3 = system: OVCAR-3
LOX IMVI = system: LOX IMVI
SNB-78 = system: SNB-78
T47D = system: T47D
786-0 = system: 786-0
Malme-3M = system: Malme-3M
OVCAR-8 = system: OVCAR-8
TK-10 = system: TK-10
SF-539 = system: SF-539
K562 = system: K562
OVCAR-4 = system: OVCAR-4
KM12 = system: KM12
NCI/ADR-RES = system: NCI/ADR-RES
NCI-H226 = system: NCI-H226
A549 = system: A549
COLO 205 = system: COLO 205
KM-20L2 = system: KM-20L2
LXFL 529 = system: LXFL 529
HOP-92 = system: HOP-92
HCT-15 = system: HCT-15
MDA-MB-435 = system: MDA-MB-435
SF-295 = system: SF-295
SNB-75 = system: SNB-75
UACC-257 = system: UACC-257
DLD-1 = system: DLD-1
PC-3 = system: PC-3
MCF7 = system: MCF7
HCC 2998 = system: HCC 2998
SNB-19 = system: SNB-19
SN12C = system: SN12C
OVCAR-5 = system: OVCAR-5
NCI-H23 = system: NCI-H23
RXF 393 = system: RXF 393
SR = system: SR
CCRF-CEM = system: CCRF-CEM
HCT-116 = system: HCT-116
SK-MEL-2 = system: SK-MEL-2
DU-145 = system: DU-145
U-251 = system: U-251
SF-268 = system: SF-268

N/C(=N\N=C\c1c[nH]c2ccccc12)Nc1ccccc1
GI50 (NCI-H522): 59.6 nM (active)
GI50 (ACHN): 671 nM (active)
GI50 (IGROV-1): 865 nM (active)
GI50 (MDA-N): 21.9 nM (active)
GI50 (SK-MEL-28): 789 nM (active)
GI50 (SW-620): 122 nM (active)
GI50 (HT-29): 191 nM (active)
GI50 (SK-MEL-5): 176 nM (active)
GI50 (DMS-273): 506 nM (active)
GI50 (EKVX): 2920 nM (inactive)
GI50 (RPMI-8226): 1000 nM (active)
GI50 (HOP-62): 308 nM (active)
GI50 (HL-60): 144 nM (active)
GI50 (HOP-18): 17900 nM (inactive)
GI50 (UO-31): 721 nM (active)
GI50 (MOLT-4): 938 nM (active)
GI50 (MDA-MB-231): 624 nM (active)
GI50 (Hs-578T): 140 nM (active)
GI50 (SK-OV-3): 418 nM (active)
GI50 (NCI-H460): 251 nM (active)
GI50 (BT-549): 527 nM (active)
GI50 (UACC-62): 248 nM (active)
GI50 (CAKI-1): 519 nM (active)
GI50 (A498): 256 nM (active)
GI50 (DMS-114): 357 nM (active)
GI50 (M14): 110 nM (active)
GI50 (OVCAR-3): 134 nM (active)
GI50 (LOX IMVI): 360 nM (active)
GI50 (SNB-78): 1080 nM (active)
GI50 (T47D): 1360 nM (inactive)
GI50 (786-0): 318 nM (active)
GI50 (Malme-3M): 215 nM (active)
GI50 (OVCAR-8): 410 nM (active)
GI50 (TK-10): 1280 nM (inactive)
GI50 (SF-539): 332 nM (active)
GI50 (K562): 278 nM (active)
GI50 (OVCAR-4): 1580 nM (inactive)
GI50 (KM12): 153 nM (active)
GI50 (NCI/ADR-RES): 148 nM (active)
GI50 (NCI-H226): 1740 nM (inactive)
GI50 (A549): 455 nM (active)
GI50 (COLO 205): 188 nM (active)
GI50 (KM-20L2): 327 nM (active)
GI50 (LXFL 529): 504 nM (active)
GI50 (HOP-92): 392 nM (active)
GI50 (HCT-15): 318 nM
GI50 (MDA-MB-435): 20 nM (active)
GI50 (SF-295): 134 nM (active)
GI50 (SNB-75): 378 nM (active)
GI50 (UACC-257): 304 nM (active)
GI50 (DLD-1): 474 nM (active)
GI50 (PC-3): 201 nM (active)
GI50 (MCF7): 185 nM (active)
GI50 (HCC 2998): 594 nM (active)
GI50 (SNB-19): 540 nM (active)
GI50 (SN12C): 535 nM (active)
GI50 (OVCAR-5): 3130 nM (inactive)
GI50 (NCI-H23): 308 nM (active)
GI50 (RXF 393): 156 nM (active)
GI50 (SR): 955 nM (active)
GI50 (CCRF-CEM): 918 nM (active)
GI50 (HCT-116): 214 nM (active)
GI50 (SK-MEL-2): 345 nM (active)
GI50 (DU-145): 314 nM (active)
GI50 (U-251): 315 nM (active)
GI50 (SF-268): 573 nM (active)
